Results from patent publication US20070134353A1, “PHYTOESTROGENIC COMPOSITION COMPRISING AN EXTRACT OF CHINESE LICORICE ROOT, ISOLIQUIRITIN OR LIQUIRITIN” (priority 2004, published 2007).
Entries after “also recorded” stand apart in the source; their conditions may differ.

What was measured:
[1] = tested on: MCF-7 breast cancer cells; assay: Inhibitory effect on MCF-7 cell line proliferation (DNA content, OD 260 nm); format: cell-based; conditions: for inhibition of proliferation of MCF-7 breast cancer cell line: 100 μg/ml; for inhibition of proliferation of cancer cells including breast cancer cells: summary statement, no concentration given
Method: (§1) 5×10^4 cells/ml of MCF-7 cells (ATCC HTB-22) were placed in a 6-well culture plate and allowed to be attached for 24 hours. Phenol red-free D-medium supplemented with 5% fetal bovine serum (FBS) and 3 Ml/l PSN antibiotic mixture (Gibco, USA) was added thereto, followed by incubation in an incubator kept at 5% CO2, 95% air, 100% humidity, 37° C. for 24 hours. After incubation for 24 hours, the medium was removed and the cultured cells were incubated in phenol red-free D-medium supplemented with 5% DCC-FBS (dextran-coated charcoal-stripped FBS; […] During the incubation, the test media were changed once. After 72 hours, the cells were treated with 1 Ml of 0.1 N NaOH (Sigma Co.) and collected to examine DNA content with a spectrophotometer at OD 260 nm.

[2] = tested on: uterus and vagina of immature Sprague-Dawley rats; assay: Immature uterotrophic assay; format: in vivo; conditions: BPA 40 mg/ml/100 g s.c. 3 days, compared to non-treated control group
Method: 40 immature Sprague-Dawley rats, aged 18 days, were kept in a breeding environment of a temperature of 22±3° C., a relative humidity of 50±10%, a ventilation frequency of 10 to 12 times/hr, light time of 12 hours, an illumination intensity of 150 to 200 lux while being supplied with AIN-76A diet (per 1 kg, thiamine HCI 0.6 g, riboflavin 0.6 g, pyridoxine HCI 0.7 g, […] 3.0 g, calcium pantothenate 1.6 g, folic acid 0.2 g, biotin 0.02 g, Vitamin B12 (0.1%) 1.0 g, Vitamin A palmitate (500,000 IU/g) 0.8 g, Vitamin D3 (400,000 IU/g) 0.25 g, Vitamin E acetate (500 IU/g) 10.0 g, menadion sodium bisulfite 0.08 g, fine powdery sucrose 981.15 g). Each rat was subcutaneously administered once daily with bisphenol A (40 mg/ml/100 g body weight) and the Chinese licorice root EtOH extract (10 mg or 50 mg/ml/100 g body weight) suspended in corn oil for 3 days. 24 hours after the last administration day, the animals were killed by cervical dislocation. […] In particular, the height of the luminal epithelium of the uterus lumen was measured and the luminal epithelium of the vagina was carefully observed. For statistical analysis of data with respect to body weight of test animals and the like which had been measured in the experiment, one-way ANOVA was performed to inspect significance between groups at p=0.05 level. […]

[3] = tested on: bisphenol-A (BPA) activity in MCF-7 cells; assay: Inhibitory effect on bisphenol-A (BPA) activity in MCF-7 cells; format: cell-based; conditions: summary statement, no concentration given
Method: as §1, with “nm. Additionally, in order to examine if the Chinese licorice root extract can suppress activity of bisphenol-A (BPA), which is an endocrine disruptor having tumor-inducing activity, in the foregoing experiment, BPA was used instead of the Chinese licorice root extract or the Chinese licorice root extract and BPA were used simultaneously. […]” for “nm.”

androgen receptor (hAR) = biological target: T1, androgen receptor (hAR) (Homo sapiens, UniProt P10275); assay: Yeast assay, yeast androgen response (YAR), β-gal reporter; format: cell-based; conditions: summary statement, no concentration given
T1 construct: expressed in transfected cells; host or cells: recombinant Saccharomyces cerevisiae (from Dr. Donald P. McDonnell, Duke University)
T1 sequence (P10275 1-920): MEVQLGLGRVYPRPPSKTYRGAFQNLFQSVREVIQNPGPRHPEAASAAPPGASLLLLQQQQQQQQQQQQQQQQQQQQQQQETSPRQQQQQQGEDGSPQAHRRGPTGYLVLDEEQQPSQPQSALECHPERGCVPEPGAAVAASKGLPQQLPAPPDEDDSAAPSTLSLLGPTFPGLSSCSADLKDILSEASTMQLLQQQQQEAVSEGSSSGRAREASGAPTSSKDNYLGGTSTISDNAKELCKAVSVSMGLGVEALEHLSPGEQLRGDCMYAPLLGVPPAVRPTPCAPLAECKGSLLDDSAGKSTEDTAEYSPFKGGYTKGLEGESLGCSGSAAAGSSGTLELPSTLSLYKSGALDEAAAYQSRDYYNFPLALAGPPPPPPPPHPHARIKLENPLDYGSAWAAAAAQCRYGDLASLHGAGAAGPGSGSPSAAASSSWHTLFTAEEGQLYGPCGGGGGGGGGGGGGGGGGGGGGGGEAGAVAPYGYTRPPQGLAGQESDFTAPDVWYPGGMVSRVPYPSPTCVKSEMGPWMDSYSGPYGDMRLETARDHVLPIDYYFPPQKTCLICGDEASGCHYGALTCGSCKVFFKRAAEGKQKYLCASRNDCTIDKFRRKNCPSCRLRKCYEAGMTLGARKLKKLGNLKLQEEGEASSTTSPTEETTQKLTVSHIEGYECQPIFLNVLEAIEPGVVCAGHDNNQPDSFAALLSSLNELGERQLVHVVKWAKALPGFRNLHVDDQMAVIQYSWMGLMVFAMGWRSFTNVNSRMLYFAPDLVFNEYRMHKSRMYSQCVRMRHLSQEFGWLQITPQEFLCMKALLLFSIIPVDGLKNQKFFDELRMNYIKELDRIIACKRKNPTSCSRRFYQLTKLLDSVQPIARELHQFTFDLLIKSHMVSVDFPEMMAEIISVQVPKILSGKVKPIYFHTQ

[4] = biological target: T2, human estrogen receptor (hER) (Homo sapiens, UniProt P03372); assay: Yeast assay, yeast estrogen response (YER), β-gal reporter; format: cell-based; conditions: for estrogenicity: summary statement, no concentration given
T2 construct: expressed in transfected cells; host or cells: Saccharomyces cerevisiae ER+LYS 8127 (from Dr. Donald P. McDonnell, Duke University)
T2 sequence (P03372 1-595): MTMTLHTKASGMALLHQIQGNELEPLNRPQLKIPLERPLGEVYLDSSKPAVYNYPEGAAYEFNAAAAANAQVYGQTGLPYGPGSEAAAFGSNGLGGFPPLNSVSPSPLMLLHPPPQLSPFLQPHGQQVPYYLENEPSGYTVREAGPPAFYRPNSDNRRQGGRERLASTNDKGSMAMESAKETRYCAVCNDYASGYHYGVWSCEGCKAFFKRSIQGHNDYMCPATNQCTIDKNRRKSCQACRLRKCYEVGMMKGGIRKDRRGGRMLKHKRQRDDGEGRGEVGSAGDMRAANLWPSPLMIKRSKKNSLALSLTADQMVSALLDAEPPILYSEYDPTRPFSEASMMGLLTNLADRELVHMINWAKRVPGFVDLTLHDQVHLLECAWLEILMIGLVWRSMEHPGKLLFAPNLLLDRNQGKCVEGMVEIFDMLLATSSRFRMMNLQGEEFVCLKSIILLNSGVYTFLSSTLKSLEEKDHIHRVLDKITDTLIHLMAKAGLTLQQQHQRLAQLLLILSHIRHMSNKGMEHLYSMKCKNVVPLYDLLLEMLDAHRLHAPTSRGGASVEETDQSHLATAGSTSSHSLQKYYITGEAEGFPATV
Method: Saccharomyces cerevisiae ER+[…], supplied by Dr. Donald P. […] The cultured yeasts were diluted in a medium to a proper concentration and 500 μM of CuSO4 (Sigma, USA) was added thereto. The diluted yeasts were then aliquoted into a 50 Ml tube at a proper level. […] Control group was treated with dimethyl sulfoxide (Sigma, USA). […] The experimental groups and control groups treated with the respective materials were then cultured for 18 hours in a shaking incubator (200 rpm). […] To each well, 100 μl of a Z buffer containing 2 mg/Ml o-nitrophenyl -β-D-galactopyranoside (Sigma, USA), 0.1% lauryl sulfate (Sigma, USA), 50 mM β-mercaptoethanol (BDH chemical LTD, England) and 200 U/Ml oxalyticase (Enzogenetics, USA) was added. After 20 minutes, the coloration was examined using a microplate reader at a wavelength of 420 nm. All the data were analyzed by ANOVA using the statistical program SAS and Dunnett's t-test was performed at significance level P<0.05.

Row | Compound | effect on proliferation of MCF-7 cells ([1]; 16 μg/ml, pretest) | thickness of uterine epithelial cells ([2]; FIG. 14) | thickness of vagina epithelial cells ([2]; FIG. 15) | suppression of the activity of bisphenol-A [3] | androgenicity (androgen receptor (hAR)) | inhibition of proliferation of MCF-7 breast cancer cell line [1] | inhibitory effect on proliferation of breast cancer cells (MCF-7) ([1]; 300 μg/ml, FIG. 5) | inhibition of proliferation of cancer cells including breast cancer cells [1] | estrogenicity (estrogen response, ER) ([4]; 10 μg/ml and 100 μg/ml, compared with positive control 10^−9 M estradiol, FIG. 2b) | estrogenicity [4] | concentration showing the highest estrogenicity ([4]; tested at 10 μg/ml and 100 μg/ml, FIG. 2b) [µg/mL]
1 | CC(C)(c1ccc(O)cc1)c1ccc(O)cc1 [BPA, bisphenol-A] | showed the highest effect on proliferation | increased | increased |  |  |  |  |  |  |  | 
2 | O=C(/C=C/c1ccc(O[C@@H]2O[C@H](CO)[C@@H](O)[C@H](O)[C@H]2O)cc1)c1ccc(O)cc1O [isoliquiritin, Isoliquiritin] |  |  |  | suppress the activity of bisphenol-A | do not show androgenicity | inhibited proliferation; also recorded: no significant proliferation of breast cancer cells was observed | excellent inhibitory effect | inhibit proliferation of cancer cells | higher than that of the positive control estradiol | show estrogenicity | 10
3 | Liquiritin |  |  |  | suppress the activity of bisphenol-A | do not show androgenicity | inhibited proliferation |  | inhibit proliferation of cancer cells |  | show estrogenicity | 
